# Reference: PubChem BioAssay (NCI)
#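 The compound was tested at five concentrations on cells cultured in 96-well plates, with a 48-hour exposure period. The concentration for full growth arrest is given as TGI.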
# Tests used:
# Test in all cases: DTP human tumour cell line panel, 48 h
# U251 CNS = test system: U251 CNS
# A498 renal = test system: A498 renal
# SF-268 CNS = test system: SF-268 CNS
# MDA-MB-435 = test system: MDA-MB-435
# SK-OV-3 ovarian = test system: SK-OV-3 ovarian
# SK-MEL-2 melanoma = test system: SK-MEL-2 melanoma
# RPMI-8226 leukemia = test system: RPMI-8226 leukemia
# OVCAR-4 ovarian = test system: OVCAR-4 ovarian
# HCC-2998 colon = test system: HCC-2998 colon
# NCI-H226 lung = test system: NCI-H226 lung
# SK-MEL-5 melanoma = test system: SK-MEL-5 melanoma
# HS 578T breast = test system: HS 578T breast
# HL-60(TB) leukemia = test system: HL-60(TB) leukemia
Compound,TGI (U251 CNS),TGI (A498 renal),TGI (SF-268 CNS),TGI (MDA-MB-435),TGI (SK-OV-3 ovarian),TGI (SK-MEL-2 melanoma),TGI (RPMI-8226 leukemia),TGI (OVCAR-4 ovarian),TGI (HCC-2998 colon),TGI (NCI-H226 lung),TGI (SK-MEL-5 melanoma),TGI (HS 578T breast),TGI (HL-60(TB) leukemia)
CSc1nc(C)c2c(n1)N(c1ccc(Cl)cc1)CC2,> 100 µM,> 100 µM,> 100 µM,> 100 µM,> 100 µM,> 100 µM,> 100 µM,> 100 µM,> 100 µM,> 100 µM,> 100 µM,> 100 µM,–
Cc1ccc2nc(C(=O)O)c(=O)[nH]c2c1,> 100 µM,> 100 µM,> 100 µM,> 100 µM,> 100 µM,> 100 µM,> 100 µM,> 100 µM,> 100 µM,> 100 µM,> 100 µM,> 100 µM,> 100 µM
C=CCNC1=C2C[C@@H](C)C[C@@H](OC)[C@H](OC(=O)CCN(C)C)[C@H](C)/C=C(\C)[C@@H](OC(N)=O)[C@H](OC)/C=C\C=C(/C)C(=O)NC(=CC1=O)C2=O,21.1 µM,21.4 µM,29.4 µM,13.2 µM,2.73 µM,12.2 µM,> 41.9 µM,26.7 µM,0.752 µM,–,12.7 µM,40.4 µM,11.7 µM
Cc1ccc(-n2cc(-c3ccc(Cl)cc3)c3c(=N)n(N)cnc32)cc1,22.3 µM,29.5 µM,25.7 µM,23.1 µM,31.5 µM,26.8 µM,–,22.5 µM,19.2 µM,38.2 µM,20.1 µM,17.5 µM,31.7 µM
CC[C@@]12CCC(=S)N(CCSc3ccccc3)[C@@H]1c1c(n(S(=O)(=O)c3ccc(OC)cc3)c3ccccc13)CC2,> 100 µM,> 100 µM,> 100 µM,> 100 µM,> 100 µM,> 100 µM,> 100 µM,–,–,> 100 µM,> 100 µM,> 100 µM,> 100 µM
CCc1cc2c(c3c1CCCC3=O)CC1(C2)Cc2cc(CC)c3c(c2C1)C(=O)CCC3,> 100 µM,> 100 µM,> 100 µM,> 100 µM,> 100 µM,> 100 µM,> 100 µM,> 100 µM,> 100 µM,> 100 µM,> 100 µM,> 100 µM,> 100 µM
Cc1cc(C)nc(NS(=O)(=O)c2ccc(Nc3c4ccccc4nc4ccc(C(=O)Nc5ccc(S(=O)(=O)N=C(N)N)cc5)cc34)cc2)n1,> 100 µM,> 100 µM,> 100 µM,> 100 µM,> 100 µM,> 100 µM,> 100 µM,> 100 µM,> 100 µM,> 100 µM,> 100 µM,> 100 µM,> 100 µM
C=CCN1C(=O)CC(=O)N(NC2=NNC3(C(=O)N2)c2ccccc2-c2ccccc23)C1=S,> 100 µM,> 100 µM,> 100 µM,> 100 µM,> 100 µM,74.5 µM,–,> 100 µM,> 100 µM,82.5 µM,> 100 µM,66.1 µM,66.2 µM
COc1ccc2c(c1)CC[C@@H]1C2CC[C@]2(C)C(=C=CP(=O)(O)O)CCC12 (stereo partly specified),> 100 µM,> 100 µM,> 100 µM,> 100 µM,> 100 µM,> 100 µM,> 100 µM,> 100 µM,> 100 µM,> 100 µM,> 100 µM,> 100 µM,–
COC(=O)c1ccccc1C1CN=NC12Cc1c(C)ccc(C)c1C2=O (stereo unspecified),> 100 µM,> 100 µM,> 100 µM,> 100 µM,> 100 µM,> 100 µM,–,> 100 µM,> 100 µM,> 100 µM,> 100 µM,> 100 µM,> 100 µM
O=C1c2ccccc2C(=O)c2sc(Nc3cc(Cl)ccc3Cl)nc21,33.5 µM,41.9 µM,21 µM,3.85 µM,30.3 µM,31.6 µM,22.6 µM,18.2 µM,20.7 µM,44.7 µM,2.98 µM,> 72.3 µM,4.89 µM
CC(C)=CCc1c2c(c(O)c3c(=O)c4c(oc13)-c1ccc(O)cc1OC4C=C(C)C)C=CC(C)(C)O2 (stereo unspecified),25.3 µM,34.9 µM,29.8 µM,23.3 µM,33.3 µM,26.1 µM,14.9 µM,24.8 µM,11 µM,40.6 µM,28.2 µM,17.2 µM,31.7 µM
CC1CCCN1CCCOC(=O)c1ccc(OC2C=CCCC2)cc1 (stereo unspecified),> 100 µM,> 100 µM,> 100 µM,> 100 µM,> 100 µM,> 100 µM,68.2 µM,> 100 µM,64.9 µM,86.4 µM,35.2 µM,71.8 µM,35.6 µM
COc1ccc(/C(CC2OC(=O)c3ccccc32)=N\NC(N)=O)cc1 (stereo unspecified),> 100 µM,> 100 µM,> 100 µM,> 100 µM,> 100 µM,> 100 µM,> 100 µM,> 100 µM,> 100 µM,> 100 µM,> 100 µM,> 100 µM,> 100 µM
Cc1cc2occ(S(=O)(=O)NC(=O)Nc3ccc(Cl)cc3)c(=O)c2c(=O)o1,> 100 µM,> 100 µM,> 100 µM,> 100 µM,> 100 µM,> 100 µM,> 100 µM,> 100 µM,> 100 µM,> 100 µM,> 100 µM,> 100 µM,> 100 µM
CCOC(=O)C1CCC(=O)N1C(=O)c1ccc(Cl)cc1 (stereo unspecified),> 100 µM,> 100 µM,> 100 µM,> 100 µM,–,–,> 100 µM,–,> 100 µM,> 100 µM,> 100 µM,> 100 µM,> 100 µM
CN(C)C(=O)Oc1ccc(C(=S)Nc2ccccc2)cc1,> 100 µM,> 100 µM,> 100 µM,> 100 µM,> 100 µM,> 100 µM,> 100 µM,> 100 µM,> 100 µM,–,55.6 µM,> 100 µM,84.9 µM
CC(CC=O)Nc1nn2c(=O)c3ccccc3nc2s1 (stereo unspecified),> 100 µM,> 100 µM,> 100 µM,> 100 µM,> 100 µM,> 100 µM,> 100 µM,> 100 µM,> 100 µM,> 100 µM,> 100 µM,> 100 µM,–

Compound,TGI (U251 CNS),TGI (A498 renal),TGI (SF-268 CNS),TGI (MDA-MB-435),TGI (SK-OV-3 ovarian),TGI (SK-MEL-2 melanoma),TGI (RPMI-8226 leukemia),TGI (OVCAR-4 ovarian),TGI (HCC-2998 colon),TGI (NCI-H226 lung),TGI (SK-MEL-5 melanoma),TGI (HS 578T breast),TGI (HL-60(TB) leukemia)
O=C(NCc1ccccc1Cl)c1c(O)c2ccccc2[nH]c1=O,40.7 µM,30.4 µM,> 100 µM,> 100 µM,–,–,> 100 µM,23.2 µM,> 100 µM,> 100 µM,> 100 µM,> 100 µM,> 100 µM
COc1cccc(CCCNC(=O)Cc2ccccc2CO)c1,> 100 µM,> 100 µM,–,> 100 µM,> 100 µM,> 100 µM,–,> 100 µM,> 100 µM,> 100 µM,> 100 µM,> 100 µM,> 100 µM
CSc1nc[nH]c1C(N)=S,> 100 µM,> 100 µM,> 100 µM,> 100 µM,> 100 µM,> 100 µM,> 100 µM,–,–,> 100 µM,> 100 µM,> 100 µM,> 100 µM
C/C(Nc1ccc(Cl)cc1)=C1/CCOC1=O,> 100 µM,> 100 µM,> 100 µM,> 100 µM,> 100 µM,> 100 µM,60.3 µM,> 100 µM,> 100 µM,> 100 µM,–,> 100 µM,> 100 µM
COC(=O)[C@@H]1COC(=O)N1,> 100 µM,> 100 µM,> 100 µM,> 100 µM,> 100 µM,> 100 µM,–,> 100 µM,> 100 µM,> 100 µM,> 100 µM,> 100 µM,> 100 µM
CCOC(=O)C1C(c2ccc(OC)cc2)c2c([nH]n(-c3ccccc3)c2=O)CC1(C)O (stereo unspecified),> 100 µM,> 100 µM,> 100 µM,> 100 µM,–,> 100 µM,> 100 µM,> 100 µM,> 100 µM,–,> 100 µM,> 100 µM,11.1 µM
Cc1cc2c(cc1Cl)Sc1n[nH]c(=O)n1S2(=O)=O,> 100 µM,90.8 µM,> 100 µM,> 100 µM,> 100 µM,–,–,> 100 µM,> 100 µM,> 100 µM,> 100 µM,> 100 µM,> 100 µM
COc1ccc(/C=N/NC(=S)Nc2cc(C)ccc2OC)cc1,–,> 100 µM,> 100 µM,> 100 µM,> 100 µM,43.8 µM,27.6 µM,> 100 µM,–,–,30 µM,> 100 µM,66.7 µM
CCCCCCCCCCCCC1N=C(N)NC2(CCCO2)C1C(=O)OC (stereo unspecified),3.2 µM,47.7 µM,14.8 µM,15.6 µM,23.8 µM,20.9 µM,5.53 µM,26.4 µM,> 39.5 µM,36.9 µM,23.7 µM,8.89 µM,–
CC(C)[C@@H]1NC(=O)[C@@H]2N=C(O[C@H]2C)[C@H](C(C)C)NC(=O)C2N=C1O[C@H]2C,–,> 100 µM,> 100 µM,> 100 µM,–,> 100 µM,> 100 µM,> 100 µM,> 100 µM,> 100 µM,> 100 µM,> 100 µM,> 100 µM
CC(C)(CN1CCCCC1)C(=O)CC(SCCS(=O)(=O)O)c1ccc(Cl)cc1 (stereo unspecified),22.3 µM,13.5 µM,–,10.6 µM,28.8 µM,18.8 µM,6.65 µM,–,26 µM,27.9 µM,20.8 µM,7.5 µM,8.13 µM
C=CCOC(=O)N1c2ccc(O)cc2[C@@]23O[C@@]24[C@@H]1C#C/C=C\C#C[C@]3(O)C(=O)C[C@@H]4C,> 100 µM,> 100 µM,> 100 µM,> 100 µM,–,> 100 µM,> 100 µM,50.1 µM,> 100 µM,> 100 µM,> 100 µM,> 100 µM,> 100 µM
CC(=O)O[C@H]1C(=O)[C@@]2(C)[C@H]([C@H](OC(=O)c3ccco3)[C@]3(O)C[C@H](OC(=O)[C@H](O)[C@@H](NC(=O)c4ccccc4)c4ccccc4)C(C)=C1C3(C)C)[C@]1(OC(C)=O)CO[C@@H]1C[C@@H]2O,> 25 µM,> 25 µM,> 25 µM,0.0591 µM,10 µM,0.578 µM,0.131 µM,> 25 µM,20 µM,> 5.05 µM,–,> 8.33 µM,0.123 µM
C[n+]1c(-c2ccc(/C=N/NC(=O)C(=O)N/N=C/c3ccc(-c4cn5ccccc5[n+]4C)cc3)cc2)cn2ccccc21,> 100 µM,> 100 µM,–,> 100 µM,> 100 µM,> 100 µM,> 100 µM,> 100 µM,> 100 µM,> 100 µM,> 100 µM,> 100 µM,> 100 µM
CC(=O)N[C@@H](Cc1ccc(O)cn1)C(=O)NC1CCCCC1,> 100 µM,> 100 µM,> 100 µM,> 100 µM,> 100 µM,> 100 µM,> 100 µM,> 100 µM,> 100 µM,> 100 µM,> 100 µM,> 100 µM,–
COc1cccc(N=NN2CCCC2)c1,> 100 µM,> 100 µM,> 100 µM,> 100 µM,> 100 µM,> 100 µM,> 100 µM,> 100 µM,–,> 100 µM,> 100 µM,> 100 µM,> 100 µM
CC(=O)[C@]1(O)Cc2c(O)c3c(c(O)c2[C@@H](OC2CC(N)C(O)C(C)O2)C1)C(=O)c1c(OCc2ccccc2)cccc1C3=O (stereo partly specified),3.97 µM,21.8 µM,11.7 µM,2.95 µM,21.2 µM,58.4 µM,> 100 µM,9.36 µM,2.63 µM,5.74 µM,5.84 µM,2.29 µM,–
